Assays:
[1] = Plasma protein binding assay, mouse plasma; format: in vitro ADME
Protocol: (§1) Formulation of plasma sample: 495 μL of blank plasmas of the corresponding species (mouse, rat, dog, monkey, and human) were drawn respectively, and thereto was added 5 μL of the corresponding test compound solution or positive control to give plasma sample solutions having a plasma drug concentration of the compound of 1 μM, and 10 μM, respectively (formulated with acetonitrile).
(§2) The pre-treated dialysis membrane was placed in a high-throughput equilibrium dialysis device, and 100 μL of the plasma sample solution and PBS buffer solution were drawn and added respectively to both sides of the dialysis membrane (sample side and buffer side) (n=3). After the equilibration device was sealed with a film, it was incubated at 37° C. overnight (100 rpm). After dialysis equilibrium was reached, 50 μL samples were drawn from the sample side and the buffer side, respectively, and the reaction was terminated by adding ice acetonitrile containing an internal standard.
(§3) Sample pre-treatment: To 50 μL of the plasma-side sample was added 450 μL of ice acetonitrile containing an internal standard, and then precipitated. After vortexing for 5 minutes, the sample was centrifugated (12000 rpm, 4° C.) for 10 minutes. 75 μL of the supernatant was pipetted, and 75 μL of ultrapure water was added thereto for dilution and mixed uniformly. 1 μL of the resulting solution was injected for analysis. […]

[2] = Stability of liver microsomes in vitro, mouse; format: in vitro ADME
Protocol: 300 μL of a final incubation system contains 30 μL of liver microsomes (protein concentration: 0.15 mg/mL, Corning), 30 μL NADPH+MgCl2, 3 μL substrate (formulated with acetonitrile), and 237 μL PBS buffer. Duplicate incubation systems of 0.3 mL each were formulated for each species. A total volume of 270 μL of a uniformly mixed solution of the substrate and the enzyme was formulated in each tube, the solution and NADPH were pre-incubated at 37° C. for 5 minutes, respectively. Then 30 μL of the mixed solution of NADPH+MgCl2 was added for reaction. 50 μL of the reaction solution was taken out at 0, 10, 30, and 60 mins, and the reaction was terminated with 300 μL of ice acetonitrile containing an internal standard.
Sample pre-treatment: To 50 μL of the incubated sample was added 300 μL of ice acetonitrile containing diazepam as an internal standard and then precipitated. After vortexing for 5 minutes, the sample was centrifugated (12000 rpm, 4° C.) for 10 minutes. 75 μL of the supernatant was pipetted into a 96-well plate, and then diluted with 75 μL ultrapure water and mixed uniformly. 0.5 μL of the resulting solution was injected and analyzed by LC-MS/MS.

CYP 3A4 = CYP 3A4 (Homo sapiens (Human), UniProt P08684); assay: CYP450 enzyme inhibition study, CYP 3A4; format: in vitro ADME; settings: human liver microsomes; read-out: Subtypes IC50 3A4
Chain of CYP 3A4 (P08684 whole entry): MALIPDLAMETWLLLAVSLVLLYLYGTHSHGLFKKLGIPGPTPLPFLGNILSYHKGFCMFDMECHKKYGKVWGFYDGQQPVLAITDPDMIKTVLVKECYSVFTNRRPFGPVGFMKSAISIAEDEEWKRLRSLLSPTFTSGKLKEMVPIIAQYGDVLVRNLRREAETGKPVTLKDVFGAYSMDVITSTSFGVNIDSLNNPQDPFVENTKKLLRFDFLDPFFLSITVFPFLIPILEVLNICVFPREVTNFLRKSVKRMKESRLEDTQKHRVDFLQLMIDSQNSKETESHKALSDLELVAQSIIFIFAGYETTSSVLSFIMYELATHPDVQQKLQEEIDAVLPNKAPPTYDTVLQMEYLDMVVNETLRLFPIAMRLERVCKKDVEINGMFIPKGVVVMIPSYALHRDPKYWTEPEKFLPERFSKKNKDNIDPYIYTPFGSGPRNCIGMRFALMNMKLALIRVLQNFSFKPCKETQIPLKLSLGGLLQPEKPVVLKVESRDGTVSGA
Protocol: 500 μL of a final incubation system contains 50 μL of human liver microsomes (protein concentration: 0.2 mg/mL, Corning), 1 μL of mixed CYP450 specific substrates (CYP1A2, CYP 2B6, CYP 2C9, CYP2C19, CYP 2D6, and CYP 3A4), 398 μL PBS buffer (pH7.4), 1 μL specific positive inhibitor (positive control group) or the test compound (formulated with acetonitrile), and 50 μL NADPH+MgCl2. Duplicate incubation systems of 0.5 mL each were formulated for each CYP450 subtype. A total volume of 450 μL of a uniformly mixed solution of the substrate and the enzyme was formulated in each tube, and the solution and NADPH were pre-incubated at 37° C. for 5 minutes, respectively. Then 50 μL of the mixed solution of NADPH+MgCl2 was added for reaction. 50 μL of the reaction solution was taken out at 30 minutes, and the reaction was terminated with 300 μL of ice acetonitrile containing an internal standard. In addition, two control groups of 500 μL each without NADPH were prepared in parallel as a negative control group.
as §3, with “incubated” for “plasma-side”, “300” for “450”, “uniformly.” for “uniformly. 1 μL of the resulting solution was injected for analysis.”

HBV DNA in serum = assay: Antiviral effect evaluation in AAV mouse model (rAAV8-1.3HBV); format: in vivo, C57BL/6 mice; settings: for Reduction levels (log10) of HBV DNA in serum, Day 28: Day 28 (1 week after administration suspended)
Protocol: 6-8 week old male C57BL/6 mice (Shanghai Lingchang Biotechnology Co., Ltd.) were injected with rAAV8-1.3HBV virus (Beijing FivePlus Gene Technology Ltd., adr subtype) at tail vein at a dose of 1×10^11 vg. Blood was collected from the orbits of the mice on week 2 and 4 after the virus injection. The serum was separated, and the expression levels of HBeAg and HBsAg in the serum and the HBV DNA copy number were detected to evaluate whether the model was successfully established. According to the results of quantitative detection of serological HBeAg, HBsAg and HBV DNA, the mice having HBV DNA expression level greater than 1×10^4 IU/mL, HBeAg expression level greater than 1×10^3 NCU/mL and HBsAg expression level greater than 1×10^3 ng/mL were selected. The mice were grouped into a blank control group, a vehicle control group, and a test substance group. The mice in each group were continuously administered intragastrically once daily for 3 weeks and then the administration was suspended for 1 week. During the experiment, blood was collected from the orbits every other week, serum was separated, and the DNA content was detected by fluorescent quantitative PCR method.

[3] = Plasma protein binding assay, rat plasma; format: in vitro ADME
Protocol: as §1, §2, §3

Cc1[nH]c(C(=O)C(=O)N[C@@H](C)C(F)(F)F)c(C)c1C(=O)Nc1ccc(F)c(C#N)c1 [Example 1, (S)—N-(3-cyano-4-fluorophenyl)-2,4-dimethyl-5-(2-oxo-2-((1,1,1-trifluoroprop-2-yl)amino)acetyl)-1H-pyrrole-3-carboxamide]
Binding rate (%) Mouse ([1]; 1 μM): 85.4% | Binding rate (%) Mouse ([1]; 10 μM): 85.5% | Remaining (%) of mouse liver microsomes at 60 min [2]: 96% | IC50 (CYP 3A4): > 200 µM | Reduction levels (log10) of HBV DNA in serum, Day 7 (HBV DNA in serum; 1 mpk intragastric once daily): 2.49 log10 | Reduction levels (log10) of HBV DNA in serum, Day 14 (HBV DNA in serum; 1 mpk intragastric once daily): 3.41 log10 | Reduction levels (log10) of HBV DNA in serum, Day 21 (HBV DNA in serum; 1 mpk intragastric once daily): 3.65 log10 | Reduction levels (log10) of HBV DNA in serum, Day 28 (HBV DNA in serum; 1 mpk): 3.25 log10 | Reduction levels (log10) of HBV DNA in serum, Day 7 (HBV DNA in serum; 10 mpk intragastric once daily): 2.67 log10 | Reduction levels (log10) of HBV DNA in serum, Day 14 (HBV DNA in serum; 10 mpk intragastric once daily): 3.80 log10 | Reduction levels (log10) of HBV DNA in serum, Day 21 (HBV DNA in serum; 10 mpk intragastric once daily): 4.30 log10 | Reduction levels (log10) of HBV DNA in serum, Day 28 (HBV DNA in serum; 10 mpk): 3.50 log10 | Binding rate (%) Rat ([3]; 1 μM): 95.0% | Binding rate (%) Rat ([3]; 10 μM): 95.3%
